Tested on: blood clots (whole blood or plasma clot labelled with 125I-fibrinogen)
Assay: in vitro clot lysis assay (release of 125I-fibrin-derived fragments, TPA-initiated lysis)
Type: biochemical
Conditions: buffer pH 7.5
Method: In the assay, whole blood or plasma is charged with ^125 I-fibrinogen Thrombin is added to initiate clot formation and subsequently incubated for 2 hours to complete the cross-linking by endogenous Factor XIII. Factor XIIIa inhibitor is added prior to clot initiation or at various times during the 2-hour incubation. At the end of this period, the labelled clot is washed and lysis is initiated by exogenous tissue plasminogen activator (TPA). Exogenous plasminogen is employed in some experiments Endogenous plasminogen is used for others. Clot dissolution as a function of time is monitored by the release of solubilized ^125 I-fibrin-derived fragments.
In FIGS. 1 and 2, the open symbols indicate absence of cerulenin and the closed symbols indicate the presence of 200μM cerulenin at the time of clot formation. Clot lysis is conducted in buffer, pH 7.5; 5 ng/mL TPA represents approximate physiologic concentration. 50 to […] represents pharmacologic concentration range. […] FIG. 2 studies employed glu-plasminogen levels at approximately 10 percent physiologic level ([…]).

With C/C=C/C/C=C/CCC(=O)[C@H]1O[C@H]1C(N)=O [Cerulenin, 3-(1-oxo-4,7-nonadienyl)-oxiranecarboxamide] the “rates and extents of clot lysis” value (200μM inhibitor at clot formation, no exogenous plasminogen, TPA at physiological and pharmacological levels, FIG. 1) was “enhanced rates and extents of lysis” and the “rate of TPA catalyzed clot lysis” value (200μM inhibitor, 12μg/mL exogenous glu-plasminogen, TPA, FIG. 2) was “lysis rates were further enhanced”.

Reference: patent US5185149A, “Methods for thrombolytic therapy” (Merck & Co., Inc., priority 1990, dated 1993)
